Patent US5670619A, “Bradykinin-antagonists for the treatment of acute pancreatitis” (Hoechst Aktiengesellschaft, priority 1991, dated 1997)

Legend:
Format in all cases: in vivo
[1] = tested on: bradykinin (injected, or split off from kininogen by kallikrein); assay: Inhibition of the fall in blood pressure evoked by bradykinin and kallikrein in anaesthetized rabbits; conditions: anaesthetized rabbit, peptide 3 nmol/kg i.v.
Procedure: Methods: Rabbits of either sex (3.5-5.0 kg) were anaesthetized with pentobarbitone sodium (35 mg/kg i.v.). Arterial blood pressure was monitored in a carotid artery using a Statham pressure transducer. I.v. injections of bradykinin (1 to 10 nmol/kg) or kallikrein (1 to 10 U/kg) were made into a jugular vein at intervals of 10 min. A peptide of the formula I (3 nmol/kg) was given i.v. and the injections of bradykinin or kallikrein were then repeated.

[2] = tested on: pancreatic enzymes in serum; assay: Serum amylase and lipase activities in caerulein-induced pancreatitis in rats; conditions: rat, A s.c., no CRL i.v., n = 6
Procedure: (§1) Method: Female Sprague-Dawley rats (260±30 g) were anaesthetized with pentobarbitone sodium (40 mg/kg, i.p.) and phenobarbitone sodium (160 mg/kg, i,p.). […] 10 min later, the animals were given a s.c. injection of a peptide of the formula I (100 nmol/kg) or of a corresponding volume (0.5 ml/kg) of a 154 mM sodium chloride solution. The systemic arterial blood pressure was monitored in a carotid artery using a Statham pressure transducer. A jugular vein was cannulated to allow the infusion of either caerulein (4 nmol/kg/h) or of physiological saline (0.034 ml/min). The infusion was started 30 min after the s.c. injection of a peptide of the formula I or saline, and lasted for 2 h. At the end of the experiment the animals were killed by decapitation; the blood was collected for the determination of serum amylase and lipase.
Methods: Serum amylase was determined using a kinetic colour test with 2-chlor-4-nitrophenyl-D-maltoheptoside (Amylase test kit Roche, F.R.G.). Serum lipase was measured by the reduction of the turbidity due to cleavage of triolein to monoglyceride and oleic acid (Monotest Lipase, Boehringer Mannheim, F.R.G.). The detection limits for amylase and lipase were 11 U/I and 16 U/l, respectively. Control animals were treated with corresponding volumes of saline instead of a peptide of the formula I.

[3] = tested on: caerulein-induced increase of water and Evans blue content in the pancreas; assay: Comparison of peptide A with the Berg et al. antagonist, given after onset of caerulein infusion in rats; conditions: rat; given 10 minutes after the outset of the caerulein infusion; Berg antagonist in a dose 10 times higher than peptide A
Procedure: Additionally D-Arg^0 -HYP^3 -Thi^5.8 D-Phe^7 -BK disclosed by Berg et al. (see page 1) has been tested in comparision with the peptide A. Both antagonists were given in two groups of rats under identical conditions 10 minutes after the outset of the infusion of caerulein.

[4] = tested on: caerulein-induced pancreatic oedema; assay: Pancreatic oedema (water and Evans blue content of pancreas) in caerulein-induced pancreatitis in rats; conditions: rat; for Pancreatic oedema: Evans blue / Pancreatic oedema: water: A s.c. 100 nmol/kg, mean ± SEM, n = 10
Excerpt: General methods: To induce experimental pancreatitis in animals, a number of procedures have been used including ligation of the pancreatic duct, injection of bile salts into the pancreatic duct, infusion of oleic acid, or infusion of the amphibian cholecystokinin analogue, caerulein. The latter procedure produces a hyperstimulation of the exocrine function of the pancreas and leads to morphological changes that share many features also seen in human acute pancreatitis (Willemer S., Bialek R., Kohler H. Adler G.; "Caerulein-induced acute pancreatitis in rats: changes in glycoprotein-composition of subcellular membrane systems in acinar cells;" Histochemistry 1990; 95; 87-96). Caerulein-induced pancreatitis in rats was used for the following experiments.
as §1
Method: Quantification of the pancreatic oedema was achieved by measuring the dry weight of pancreas and the accumulation of plasma proteins in pancreas. At the end of the infusions (see blood pressure experiments), the blood was collected for measuring enzymes in serum. The pancreas was excised and weighed. After drying the tissue, the difference between wet and dry weight, in relation to dry weight, was used as a measure for the water content of the tissue. 5 mg/kg of Evans blue, which quantitatively binds to serum albumin (Rawson R. A.: "The binding of T-1824 and structurally related diazo dyes by plasma proteins", Amer. J. Physiol. 1943, 138, 708-717) was injected i.v. immediately before the start of the i.v. infusion of caerulein or physiological saline. Thereafter the pancreatic tissue was used to measure Evans blue concentration photometrically (Gamse R., Holzer P., Lembeck F.: "Decrease of substance P in primary afferent neurones and impairment of neurogenic plasma extravasation by capsaicin", Br. J. Pharmacol. 1980, 68, 207-213; Saria A., Lundberg J. M.: "Evans blue fluorescence: quantitative and morphological evaluation of vascular permeability in animal tissues", J. Neurosci. Meth. 1983, 8, 41-49). Control animals were treated with corresponding volumes of saline instead of a peptide of the formula I or caerulein. Plasma extravasation was quantified as content of water and Evans blue in the pancreas.

N=C(N)NCCC[C@@H](N)C(=O)N[C@@H](CCCNC(=N)N)C(=O)N1CCC[C@H]1C(=O)N1C[C@H](O)C[C@H]1C(=O)NCC(=O)N[C@@H](Cc1cccs1)C(=O)N[C@@H](CO)C(=O)N1Cc2ccccc2C[C@@H]1C(=O)N1[C@H](C(=O)N[C@@H](CCCNC(=N)N)C(=O)O)C[C@@H]2CCCC[C@@H]21 [peptide A, H-D-Arg-Arg-Pro-Hyp-Gly-Thi-Ser-D-Tic-Oic-Arg-OH]
fall in blood pressure evoked by bradykinin ([1]; bradykinin 1 to 10 nmol/kg i.v.): completely blocked | fall in blood pressure evoked by kallikrein ([1]; kallikrein 1 to 10 U/kg i.v.): completely blocked | Serum Amylase activity ([2]; mean ± SEM): 3.19 ± 0.21 U/ml | Serum Lipase activity ([2]; nn = not detectable): nn | increase of Evans blue content in the pancreas [3]: completely inhibited | increase of water content in the pancreas [3]: completely inhibited | Pancreatic oedema: Evans blue ([4]; CRL i.v.): 18.21 ± 4.24 μg/g dry wgt | Pancreatic oedema: water ([4]; CRL i.v.): 3.11 ± 0.33 g/g dry wgt | Pancreatic oedema: Evans blue ([4]; no CRL i.v.): 20.31 ± 5.80 μg/g dry wgt | Pancreatic oedema: water ([4]; no CRL i.v.): 2.62 ± 0.23 g/g dry wgt | CRL induced pancreatic oedema ([4]; result in words): completely inhibited
